From BigSolDB 2.1

CC1(C)C[C@@H]1C(N)=O
Settings | solubility (mole fraction)
in chloroform, 286.26 K | 0.0357
in chloroform, 293.65 K | 0.0395
in chloroform, 296.64 K | 0.0429
in chloroform, 300.25 K | 0.0484
in chloroform, 303.47 K | 0.0529
in chloroform, 308.04 K | 0.0596
in chloroform, 310.96 K | 0.0665
in chloroform, 314.18 K | 0.0699
in chloroform, 317.45 K | 0.0789
in chloroform, 321.27 K | 0.0902
in dichloromethane, 288.72 K | 0.0152
in dichloromethane, 292.45 K | 0.0177
in dichloromethane, 296.11 K | 0.0205
in dichloromethane, 298.74 K | 0.0233
in dichloromethane, 300.83 K | 0.0248
in dichloromethane, 302.2 K | 0.0268
in dichloromethane, 304.6 K | 0.0301
in dichloromethane, 306.27 K | 0.0321
in dichloromethane, 309.29 K | 0.0367
in ethanol, 290.04 K | 0.089
in ethanol, 293.28 K | 0.0945
in ethanol, 296.81 K | 0.101
in ethanol, 299.25 K | 0.107
in ethanol, 302.71 K | 0.116
in ethanol, 306.04 K | 0.123
in ethanol, 309.67 K | 0.134
in ethanol, 313.53 K | 0.148
in ethanol, 318.09 K | 0.163
in ethyl acetate, 288.96 K | 0.0169
in ethyl acetate, 290 K | 0.0205
in ethyl acetate, 294.53 K | 0.0279
in ethyl acetate, 301.16 K | 0.0357
in ethyl acetate, 305.88 K | 0.0409
in ethyl acetate, 311 K | 0.0483
in ethyl acetate, 316.3 K | 0.0557
in ethyl acetate, 323.65 K | 0.0787
in ethyl acetate, 328.41 K | 0.0912
in toluene, 288.7 K | 0.00221
in toluene, 302.9 K | 0.004
in toluene, 311.23 K | 0.00599
in toluene, 318.11 K | 0.00858
in toluene, 324.07 K | 0.011
in toluene, 328.47 K | 0.0137
in toluene, 332.43 K | 0.016
in toluene, 338.07 K | 0.0219
in toluene, 342.25 K | 0.0259
in toluene, 348.06 K | 0.035
in water, 294.8 K | 0.00374
in water, 308.15 K | 0.00499
in water, 314.67 K | 0.00583
in water, 327.39 K | 0.00716
in water, 331.7 K | 0.00917
in water, 336.08 K | 0.0115
in water, 340.86 K | 0.0146
in water, 345.84 K | 0.0177
in water, 353.93 K | 0.026
